From the supplement of paper PMC10307832

Experiments:
Assay in all cases: relative viability (nuclei count vs DMSO), 5 days (fraction); higher = more cells survive
[1] = tested on: LXF-289
How it was run: (§1)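 Medians of duplicate plates are given as relative viability. That measure is the nuclei count in treated wells divided by the count in vehicle wells. Counts were taken on 4× images of lung cancer cell lines in 1536-well plates, 5 days after pin-tool dosing the day after seeding with one drug alone or a fixed anchor-drug dose plus five library-drug doses (not always all listed) in √10 steps.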

[2] = tested on: NCI-H520
How it was run: as §1

[3] = tested on: NCI-H1651
How it was run: as §1

[4] = tested on: PC-14
How it was run: as §1

[5] = tested on: NCI-H1355
How it was run: as §1

[6] = tested on: NCI-H1915
How it was run: as §1

[7] = tested on: NCI-H1755
How it was run: as §1

[8] = tested on: NCI-H596
How it was run: as §1

[9] = tested on: NCI-H322M
How it was run: as §1

[10] = tested on: NCI-H3122
How it was run: as §1

[11] = tested on: NCI-H661
How it was run: as §1

[12] = tested on: RERF-LC-KJ
How it was run: as §1

[13] = tested on: NCI-H727
How it was run: as §1

[14] = tested on: NCI-H1563
How it was run: as §1

[15] = tested on: NCI-H1792
How it was run: as §1

[16] = tested on: LCLC-103H
How it was run: as §1

[17] = tested on: SK-MES-1
How it was run: as §1

[18] = tested on: NCI-H441
How it was run: as §1

[19] = tested on: NCI-H2347
How it was run: as §1

[20] = tested on: NCI-H460
How it was run: as §1

COc1nc(C)cnc1NS(=O)(=O)c1cccnc1-c1ccc(-c2nnco2)cc1 [Zibotentan] + C[C@]1(O)C[C@@H](c2nc(-c3ccc4ccc(-c5ccccc5)nc4c3)c3c(N)nccn32)C1 [Linsitinib] (partner 1 µM)
relative viability ([1]; first compound 0.08 µM): 1.01 | relative viability ([1]; first compound 0.253 µM): 0.998 | relative viability ([1]; first compound 0.8 µM): 0.969 | relative viability ([1]; first compound 2.53 µM): 1.01 | relative viability ([2]; first compound 0.08 µM): 1.05 | relative viability ([2]; first compound 0.253 µM): 0.892 | relative viability ([2]; first compound 0.8 µM): 0.904 | relative viability ([2]; first compound 2.53 µM): 1.02 | relative viability ([3]; first compound 0.08 µM): 1.17 | relative viability ([3]; first compound 0.253 µM): 0.949 | relative viability ([3]; first compound 0.8 µM): 0.92 | relative viability ([3]; first compound 2.53 µM): 0.849 | relative viability ([4]; first compound 0.08 µM): 1 | relative viability ([4]; first compound 0.253 µM): 0.888 | relative viability ([4]; first compound 0.8 µM): 0.937 | relative viability ([4]; first compound 2.53 µM): 1.02 | relative viability ([5]; first compound 0.08 µM): 0.812 | relative viability ([5]; first compound 0.253 µM): 0.818 | relative viability ([5]; first compound 0.8 µM): 0.824 | relative viability ([5]; first compound 2.53 µM): 0.909 | relative viability ([6]; first compound 0.08 µM): 0.917 | relative viability ([6]; first compound 0.253 µM): 1.19 | relative viability ([6]; first compound 0.8 µM): 1.11 | relative viability ([6]; first compound 2.53 µM): 1.08 | relative viability ([7]; first compound 0.08 µM): 0.99 | relative viability ([7]; first compound 0.253 µM): 0.967 | relative viability ([7]; first compound 0.8 µM): 1.03 | relative viability ([7]; first compound 2.53 µM): 1.03 | relative viability ([8]; first compound 0.08 µM): 1.23 | relative viability ([8]; first compound 0.253 µM): 1.08 | relative viability ([8]; first compound 0.8 µM): 1.03 | relative viability ([8]; first compound 2.53 µM): 1.11 | relative viability ([9]; first compound 0.08 µM): 0.912 | relative viability ([9]; first compound 0.253 µM): 0.898 | relative viability ([9]; first compound 0.8 µM): 0.933 | relative viability ([9]; first compound 2.53 µM): 0.843 | relative viability ([10]; first compound 0.08 µM): 0.983 | relative viability ([10]; first compound 0.253 µM): 0.972 | relative viability ([10]; first compound 0.8 µM): 1 | relative viability ([10]; first compound 2.53 µM): 0.963 | relative viability ([11]; first compound 0.08 µM): 0.545 | relative viability ([11]; first compound 0.253 µM): 0.486 | relative viability ([11]; first compound 0.8 µM): 0.518 | relative viability ([11]; first compound 2.53 µM): 0.68 | relative viability ([12]; first compound 0.08 µM): 0.885 | relative viability ([12]; first compound 0.253 µM): 0.859 | relative viability ([12]; first compound 0.8 µM): 0.803 | relative viability ([12]; first compound 2.53 µM): 0.892 | relative viability ([13]; first compound 0.08 µM): 0.208 | relative viability ([13]; first compound 0.253 µM): 0.322 | relative viability ([13]; first compound 0.8 µM): 0.248 | relative viability ([13]; first compound 2.53 µM): 0.314 | relative viability ([14]; first compound 0.08 µM): 1.17 | relative viability ([14]; first compound 0.253 µM): 0.789 | relative viability ([14]; first compound 0.8 µM): 1.39 | relative viability ([14]; first compound 2.53 µM): 1.34 | relative viability ([15]; first compound 0.08 µM): 0.426 | relative viability ([15]; first compound 0.253 µM): 0.448 | relative viability ([15]; first compound 0.8 µM): 0.396 | relative viability ([15]; first compound 2.53 µM): 0.556 | relative viability ([16]; first compound 0.08 µM): 1.09 | relative viability ([16]; first compound 0.253 µM): 0.951 | relative viability ([16]; first compound 0.8 µM): 1.06 | relative viability ([16]; first compound 2.53 µM): 1.2 | relative viability ([17]; first compound 0.08 µM): 1.12 | relative viability ([17]; first compound 0.253 µM): 1 | relative viability ([17]; first compound 0.8 µM): 1.05 | relative viability ([17]; first compound 2.53 µM): 1.14 | relative viability ([18]; first compound 0.08 µM): 0.634 | relative viability ([18]; first compound 0.253 µM): 0.552 | relative viability ([18]; first compound 0.8 µM): 0.633 | relative viability ([18]; first compound 2.53 µM): 0.535 | relative viability ([19]; first compound 0.08 µM): 0.982 | relative viability ([19]; first compound 0.253 µM): 0.833 | relative viability ([19]; first compound 0.8 µM): 1.11 | relative viability ([19]; first compound 2.53 µM): 0.969 | relative viability ([20]; first compound 0.08 µM): 0.789 | relative viability ([20]; first compound 0.8 µM): 0.803 | relative viability ([20]; first compound 2.53 µM): 0.742

COc1nc(C)cnc1NS(=O)(=O)c1cccnc1-c1ccc(-c2nnco2)cc1 [Zibotentan] + CS(=O)(=O)N1CCN(Cc2cc3nc(-c4cccc5[nH]ncc45)nc(N4CCOCC4)c3s2)CC1 [Pictilisib] (partner 1 µM)
relative viability ([1]; first compound 0.08 µM): 0.774 | relative viability ([1]; first compound 0.253 µM): 0.739 | relative viability ([1]; first compound 0.8 µM): 0.814 | relative viability ([1]; first compound 2.53 µM): 0.783 | relative viability ([2]; first compound 0.08 µM): 0.336 | relative viability ([2]; first compound 0.253 µM): 0.233 | relative viability ([2]; first compound 0.8 µM): 0.311 | relative viability ([2]; first compound 2.53 µM): 0.316 | relative viability ([3]; first compound 0.08 µM): 0.742 | relative viability ([3]; first compound 0.253 µM): 0.427 | relative viability ([3]; first compound 0.8 µM): 0.705 | relative viability ([3]; first compound 2.53 µM): 0.602 | relative viability ([4]; first compound 0.08 µM): 0.91 | relative viability ([4]; first compound 0.253 µM): 0.8 | relative viability ([4]; first compound 0.8 µM): 0.793 | relative viability ([4]; first compound 2.53 µM): 0.628 | relative viability ([5]; first compound 0.08 µM): 0.403 | relative viability ([5]; first compound 0.253 µM): 0.424 | relative viability ([5]; first compound 0.8 µM): 0.431 | relative viability ([5]; first compound 2.53 µM): 0.436 | relative viability ([6]; first compound 0.08 µM): 1.01 | relative viability ([6]; first compound 0.253 µM): 0.955 | relative viability ([6]; first compound 0.8 µM): 0.873 | relative viability ([6]; first compound 2.53 µM): 0.96 | relative viability ([7]; first compound 0.08 µM): 0.444 | relative viability ([7]; first compound 0.253 µM): 0.461 | relative viability ([7]; first compound 0.8 µM): 0.382 | relative viability ([7]; first compound 2.53 µM): 0.47 | relative viability ([8]; first compound 0.08 µM): 0.446 | relative viability ([8]; first compound 0.253 µM): 0.417 | relative viability ([8]; first compound 0.8 µM): 0.385 | relative viability ([8]; first compound 2.53 µM): 0.428 | relative viability ([9]; first compound 0.08 µM): 0.521 | relative viability ([9]; first compound 0.253 µM): 0.559 | relative viability ([9]; first compound 0.8 µM): 0.533 | relative viability ([9]; first compound 2.53 µM): 0.506 | relative viability ([10]; first compound 0.08 µM): 0.568 | relative viability ([10]; first compound 0.253 µM): 0.519 | relative viability ([10]; first compound 0.8 µM): 0.576 | relative viability ([10]; first compound 2.53 µM): 0.539 | relative viability ([11]; first compound 0.08 µM): 0.43 | relative viability ([11]; first compound 0.253 µM): 0.302 | relative viability ([11]; first compound 0.8 µM): 0.391 | relative viability ([11]; first compound 2.53 µM): 0.314 | relative viability ([12]; first compound 0.08 µM): 0.484 | relative viability ([12]; first compound 0.253 µM): 0.704 | relative viability ([12]; first compound 0.8 µM): 0.593 | relative viability ([12]; first compound 2.53 µM): 0.514 | relative viability ([13]; first compound 0.08 µM): 0.567 | relative viability ([13]; first compound 0.253 µM): 0.38 | relative viability ([13]; first compound 0.8 µM): 0.395 | relative viability ([13]; first compound 2.53 µM): 0.483 | relative viability ([14]; first compound 0.08 µM): 0.635 | relative viability ([14]; first compound 0.253 µM): 0.594 | relative viability ([14]; first compound 0.8 µM): 0.652 | relative viability ([14]; first compound 2.53 µM): 0.639 | relative viability ([15]; first compound 0.08 µM): 0.275 | relative viability ([15]; first compound 0.253 µM): 0.234 | relative viability ([15]; first compound 0.8 µM): 0.257 | relative viability ([15]; first compound 2.53 µM): 0.246 | relative viability ([16]; first compound 0.08 µM): 0.681 | relative viability ([16]; first compound 0.253 µM): 0.558 | relative viability ([16]; first compound 0.8 µM): 0.55 | relative viability ([16]; first compound 2.53 µM): 0.608 | relative viability ([17]; first compound 0.08 µM): 0.344 | relative viability ([17]; first compound 0.253 µM): 0.356 | relative viability ([17]; first compound 0.8 µM): 0.388 | relative viability ([17]; first compound 2.53 µM): 0.428 | relative viability ([18]; first compound 0.08 µM): 0.518 | relative viability ([18]; first compound 0.253 µM): 0.39 | relative viability ([18]; first compound 0.8 µM): 0.545 | relative viability ([18]; first compound 2.53 µM): 0.632 | relative viability ([19]; first compound 0.08 µM): 0.601 | relative viability ([19]; first compound 0.253 µM): 0.547 | relative viability ([19]; first compound 0.8 µM): 0.621 | relative viability ([19]; first compound 2.53 µM): 0.769 | relative viability ([20]; first compound 0.08 µM): 0.351 | relative viability ([20]; first compound 0.253 µM): 0.336 | relative viability ([20]; first compound 0.8 µM): 0.327 | relative viability ([20]; first compound 2.53 µM): 0.38
